According to the supplement of paper PMC10307832:

How the values were obtained:
Test in all cases: relative viability (nuclei count vs DMSO), 5 days (fraction); higher = more cells survive
Selumetinib + Navitoclax = compound: Cn1cnc2c(F)c(Nc3ccc(Br)cc3Cl)c(C(=O)NOCCO)cc21 [Selumetinib] + CC1(C)CCC(c2ccc(Cl)cc2)=C(CN2CCN(c3ccc(C(=O)NS(=O)(=O)c4ccc(N[C@H](CCN5CCOCC5)CSc5ccccc5)c(S(=O)(=O)C(F)(F)F)c4)cc3)CC2)C1 [Navitoclax] (partner 0.5 µM)
In short: (§1)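 The day after seeding in 1536-well plates, lung cancer cell lines were treated by pin tool with a single drug, or with a fixed anchor-drug dose together with five library-drug doses (not always all listed) in √10 steps. After 5 days, a combined fix-and-stain solution (final 0.05% Triton X-100, 1% formaldehyde, 1 ug/ml Hoechst) was added. Nuclei counted on 4× images gave relative viability as treated counts over vehicle counts, reported as the median of duplicate plates.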

Venetoclax + Decitabine = compound: CC1(C)CCC(CN2CCN(c3ccc(C(=O)NS(=O)(=O)c4ccc(NCC5CCOCC5)c([N+](=O)[O-])c4)c(Oc4cnc5[nH]ccc5c4)c3)CC2)=C(c2ccc(Cl)cc2)C1 [Venetoclax] + Nc1ncn([C@H]2C[C@H](O)[C@@H](CO)O2)c(=O)n1 [Decitabine] (partner 2 µM)
In short: as §1

Selumetinib + Decitabine = compound: Cn1cnc2c(F)c(Nc3ccc(Br)cc3Cl)c(C(=O)NOCCO)cc21 [Selumetinib] + Nc1ncn([C@H]2C[C@H](O)[C@@H](CO)O2)c(=O)n1 [Decitabine] (partner 2 µM)
In short: as §1

Venetoclax + Foretinib = compound: CC1(C)CCC(CN2CCN(c3ccc(C(=O)NS(=O)(=O)c4ccc(NCC5CCOCC5)c([N+](=O)[O-])c4)c(Oc4cnc5[nH]ccc5c4)c3)CC2)=C(c2ccc(Cl)cc2)C1 [Venetoclax] + COc1cc2c(Oc3ccc(NC(=O)C4(C(=O)Nc5ccc(F)cc5)CC4)cc3F)ccnc2cc1OCCCN1CCOCC1 [Foretinib] (partner 0.25 µM)
In short: as §1

| Cell Line | relative viability (Selumetinib + Navitoclax; first compound 0.02 µM) | relative viability (Selumetinib + Navitoclax; first compound 0.06325 µM) | relative viability (Selumetinib + Navitoclax; first compound 0.2 µM) | relative viability (Selumetinib + Navitoclax; first compound 0.6325 µM) | relative viability (Venetoclax + Decitabine; first compound 0.01 µM) | relative viability (Venetoclax + Decitabine; first compound 0.03162 µM) | relative viability (Venetoclax + Decitabine; first compound 0.1 µM) | relative viability (Venetoclax + Decitabine; first compound 0.3162 µM) | relative viability (Venetoclax + Decitabine; first compound 1 µM) | relative viability (Selumetinib + Decitabine; first compound 0.02 µM) | relative viability (Selumetinib + Decitabine; first compound 0.06325 µM) | relative viability (Selumetinib + Decitabine; first compound 0.2 µM) | relative viability (Selumetinib + Decitabine; first compound 0.6325 µM) | relative viability (Venetoclax + Foretinib; first compound 0.01 µM) | relative viability (Venetoclax + Foretinib; first compound 0.03162 µM) | relative viability (Venetoclax + Foretinib; first compound 0.1 µM) | relative viability (Venetoclax + Foretinib; first compound 0.3162 µM) | relative viability (Venetoclax + Foretinib; first compound 1 µM) |
| --- | --- | --- | --- | --- | --- | --- | --- | --- | --- | --- | --- | --- | --- | --- | --- | --- | --- | --- |
| NCI-H3122 | 0.937 | 0.852 | 0.908 | 0.808 | 0.349 | 0.419 | 0.378 | 0.373 | 0.432 | 0.401 | 0.394 | 0.401 | 0.452 | 0.954 | 0.996 | 0.924 | 0.942 | 0.96 |
| NCI-H2347 | 0.752 | 0.403 | 0.271 | 0.228 | 0.616 | 0.59 | 0.651 | 0.662 | 0.738 | 0.571 | 0.585 | 0.49 | 0.34 | 1.05 | 1.39 | 0.85 | 0.883 | 0.854 |
| NCI-H1651 | 1.1 | 0.941 | 0.887 | 0.846 | 0.611 | 0.701 | 0.548 | 0.512 | 0.665 | 0.626 | 0.531 | 0.644 | 0.701 | 0.876 | 0.787 | 0.834 | 0.823 | 0.808 |
| NCI-H1793 | 0.478 | 0.304 | 0.311 | 0.281 | 0.301 | 0.58 | 0.521 | 0.45 | 0.49 | 0.494 | 0.527 | 0.468 | 0.401 | 0.769 | 0.71 | 0.619 | 0.79 | 0.607 |
| EKVX | 0.689 | 0.82 | 0.559 | 0.487 | 0.33 | 0.327 | 0.317 | 0.392 | 0.35 | 0.339 | 0.29 | 0.37 | 0.339 | 0.657 | 1.24 | 0.332 | 0.795 | 0.788 |
| NCI-H1437 | 1.07 | 0.856 | 0.75 | 0.487 | 0.659 | 0.52 | 0.52 | 0.542 | 0.556 | 0.614 | 0.537 | 0.464 | 0.544 | 1.28 | 1.24 | 1.25 | 1.26 | 1.15 |
| NCI-H23 | 0.851 | 0.827 | 0.672 | 0.63 | 0.322 | 0.298 | 0.337 | 0.316 | 0.317 | 0.324 | 0.268 | 0.319 | 0.302 | 0.949 | 0.945 | 1.01 | 1.07 | 0.993 |
| EPLC-272H | 0.791 | 0.942 | 0.76 | 0.843 | 0.391 | 0.378 | 0.328 | 0.371 | 0.445 | 0.364 | 0.339 | 0.346 | 0.294 | 0.678 | 0.849 | 0.597 | 0.725 | 0.74 |
| H3255 | 0.428 | 0.487 | 0.342 | 0.436 | 0.657 | 0.582 | 0.496 | 0.635 | 0.597 | 0.647 | 0.649 | 0.557 | 0.614 | 0.835 | 1 | 0.865 | 0.893 | 0.788 |
| SK-LU-1 | 0.795 | 0.791 | 1.24 | 0.268 | 0.568 | 0.738 | 0.639 | 0.609 | 0.549 | 0.793 | 0.65 | 0.572 | 0.438 | 0.776 | 0.853 | 0.767 | 0.816 | 0.775 |
| NCI-H727 | 0.237 | 0.184 | 0.119 | 0.103 | 0.918 | 1.07 | 1.04 | 0.704 | 0.891 | 0.762 | 0.578 | 0.606 | 0.583 | 1.16 | 0.719 | 0.834 | 1.08 | 0.884 |
| PC-3 [JPC-3] | 0.824 | 0.744 | 0.721 | 0.651 | 0.854 | 0.788 | 0.931 | 0.809 | 0.805 | 0.786 | 0.745 | 0.796 | 0.798 | 0.939 | 1.07 | 1.14 | 0.987 | 0.994 |
| COR-L 105 | 0.78 | 0.574 | 0.642 | 0.451 | 0.581 | 0.589 | 0.694 | 0.76 | 0.652 | 0.637 | 0.507 | 0.452 | 0.45 | 0.752 | 0.78 | 1.15 | 1 | 0.991 |
| NCI-H322M | 1.14 | 0.795 | 1.05 | 1.04 | 0.709 | 0.695 | 0.685 | 0.804 | 0.747 | 0.722 | 0.71 | 0.598 | 0.548 | 0.939 | 1 | 0.915 | 0.972 | 1.05 |
| NCI-H1395 | 1.08 | 1.13 | 1.22 | 1.28 | 0.71 | 0.673 | 0.736 | 0.692 | 0.63 | 0.698 | 0.712 | 0.675 | 0.639 | 1.06 | 1.01 | 1.04 | 1.07 | 0.996 |
| NCI-H838 | 1.01 | 0.965 | 0.963 | 0.88 | 0.53 | 0.485 | 0.445 | 0.449 | 0.477 | 0.446 | 0.421 | 0.45 | 0.448 | 1.05 | 1.04 | 1.06 | 1.05 | 0.961 |
| NCI-H1993 | 0.801 | 0.79 | 0.749 | 0.648 | 0.505 | 0.673 | 0.541 | 0.621 | 0.552 | 0.571 | 0.615 | 0.549 | 0.604 | 0.786 | 0.859 | 0.863 | 0.783 | 0.686 |
